In PMC11672299, “Conjugation of Polycationic Peptides Extends the Efficacy Spectrum of β‐Lactam Antibiotics” (Advanced Science, 2024):
Square brackets hold non-standard residues; d marks the D form. Peptide text beside a SMILES is read from it. * marks the point of attachment. X1 = CC(C)(O/N=C(\C(=O)N[C@@H]1C(=O)N2C(C(=O)[O-])=C(C[n+]3ccccc3)CS[C@H]12)c1csc(N)n1)C(=O)NCCCCCCN1C(=O)CC(*)C1=O; X2 = C[C@H]1[C@H](NC(=O)/C(=N\OC(C)(C)C(=O)NCCCCCCN2C(=O)CC(*)C2=O)c2csc(N)n2)C(=O)N1S(=O)(=O)O

These compounds were tested on B. subtilis DSM 10 (assay: microbe, parasite or virus in culture). Conditions: B. subtilis DSM 10; median (n = 3).
Assay type: cell-based
Method: The minimum inhibitory concentration (MIC) of the β‐lactam–peptide conjugates was determined by broth microdilution as previously described.^[ [17] ^] Briefly, in cation‐adjusted MHB II medium, a twofold serial dilution of the compounds was prepared in 96‐well round‐bottom polystyrene or polypropylene microtiter plates with each well containing 50 µL. The plates were inoculated with 50 µL bacterial suspension and the final inoculum, in a total volume of 100 µL, contained 5 × 10^5 CFU mL^−1. The microplates were incubated for 20 h at 37 ± 1 °C. The lowest concentration preventing visible bacterial growth was considered the MIC value. For susceptibility testing of combinations of β‐lactamase‐inhibitors with either a β‐lactam antibiotic or a β‐lactam–peptide conjugate, fixed concentrations of the inhibitors according to the EUCAST (European Committee on Antimicrobial Susceptibility Testing) guidelines (clavulanic acid = 2 mg L^−1, avibactam = 4 mg L^−1) were used.

SMILES	MIC [µg/mL]
C[C@H]1[C@H](NC(=O)/C(=N\OC(C)(C)C(=O)NCCCCCCN2C(=O)CC(SC[C@H](NC(=O)[C@H](CCCNC(=N)N)NC(=O)[C@H](CCCNC(=N)N)NC(=O)[C@H](CCCNC(=N)N)NC(=O)[C@H](CCCNC(=N)N)NC(=O)[C@H](CCCNC(=N)N)NC(=O)[C@H](CCCNC(=N)N)NC(=O)[C@H](N)Cc3ccc(O)cc3)C(N)=O)C2=O)c2csc(N)n2)C(=O)N1S(=O)(=O)O (some centres unmarked) [AZT-yR6] (H-[dY]RRRRRRC(X2)-NH2; N-terminus assumed)	1

Same assay, conditions: DSM 10, 20 h

SMILES	MIC [µg/mL]
CC1(C)S[C@@H]2[C@H](NC(=O)[C@H](NC(=O)C3CCC(CN4C(=O)CC(SC[C@H](NC(=O)[C@H](CCCNC(=N)N)NC(=O)[C@H](CCCNC(=N)N)NC(=O)[C@H](CCCNC(=N)N)NC(=O)[C@H](CCCNC(=N)N)NC(=O)[C@H](CCCNC(=N)N)NC(=O)[C@@H](N)CCCNC(=N)N)C(N)=O)C4=O)CC3)c3ccc(O)cc3)C(=O)N2[C@H]1C(=O)O (some centres unmarked) [AMO-R6]	0.06
C[C@H]1[C@H](NC(=O)/C(=N\OC(C)(C)C(=O)NCCCCCCN2C(=O)CC(SC[C@H](NC(=O)[C@H](CCCNC(=N)N)NC(=O)CNC(=O)[C@H](CCCNC(=N)N)NC(=O)CNC(=O)[C@H](CCCNC(=N)N)NC(=O)CN)C(N)=O)C2=O)c2csc(N)n2)C(=O)N1S(=O)(=O)O (some centres unmarked) [AZT-(GR)3] (H-GRGRGRC(X2)-NH2; N-terminus assumed)	1
C[C@H]1[C@H](NC(=O)/C(=N\OC(C)(C)C(=O)NCCCCCCN2C(=O)CC(SC[C@H](NC(=O)[C@H](CCCNC(=N)N)NC(=O)[C@H](CCCCN)NC(=O)[C@H](CCCNC(=N)N)NC(=O)[C@H](CCCCN)NC(=O)[C@H](CCCNC(=N)N)NC(=O)[C@@H](N)CCCCN)C(N)=O)C2=O)c2csc(N)n2)C(=O)N1S(=O)(=O)O (some centres unmarked) [AZT-(KR)3] (H-KRKRKRC(X2)-NH2; N-terminus assumed)	0.06
C[C@H]1[C@H](NC(=O)/C(=N\OC(C)(C)C(=O)NCCCCCCN2C(=O)CC(SC[C@H](NC(=O)[C@H](CCC(=O)O)NC(=O)[C@H](CCC(=O)O)NC(=O)[C@H](CCC(=O)O)NC(=O)[C@H](CCC(=O)O)NC(=O)[C@H](CCC(=O)O)NC(=O)[C@@H](N)CCC(=O)O)C(N)=O)C2=O)c2csc(N)n2)C(=O)N1S(=O)(=O)O (some centres unmarked) [AZT-E6]	> 64
C[C@H]1[C@H](NC(=O)/C(=N\OC(C)(C)C(=O)NCCCCCCN2C(=O)CC(SC[C@H](NC(=O)CNC(=O)CNC(=O)CNC(=O)CNC(=O)CNC(=O)CN)C(N)=O)C2=O)c2csc(N)n2)C(=O)N1S(=O)(=O)O (some centres unmarked) [AZT-G6] (H-GGGGGGC(X2)-NH2; N-terminus assumed)	64
C[C@H]1[C@H](NC(=O)/C(=N\OC(C)(C)C(=O)NCCCCCCN2C(=O)CC(SC[C@H](NC(=O)[C@@H](N)CCCCN)C(N)=O)C2=O)c2csc(N)n2)C(=O)N1S(=O)(=O)O (some centres unmarked) [AZT-K1]	16
C[C@H]1[C@H](NC(=O)/C(=N\OC(C)(C)C(=O)NCCCCCCN2C(=O)CC(SC[C@H](NC(=O)[C@H](CCCCN)NC(=O)[C@H](CCCCN)NC(=O)[C@@H](N)CCCCN)C(N)=O)C2=O)c2csc(N)n2)C(=O)N1S(=O)(=O)O (some centres unmarked) [AZT-K3]	8
C[C@H]1[C@H](NC(=O)/C(=N\OC(C)(C)C(=O)NCCCCCCN2C(=O)CC(SC[C@H](NC(=O)[C@H](CCCCN)NC(=O)[C@H](CCCCN)NC(=O)[C@H](CCCCN)NC(=O)[C@H](CCCCN)NC(=O)[C@H](CCCCN)NC(=O)[C@@H](N)CCCCN)C(N)=O)C2=O)c2csc(N)n2)C(=O)N1S(=O)(=O)O (some centres unmarked) [AZT-K6] (H-KKKKKKC(X2)-NH2; N-terminus assumed)	0.25
C[C@H]1[C@H](NC(=O)/C(=N\OC(C)(C)C(=O)NCCCCCCN2C(=O)CC(SC[C@H](NC(=O)[C@H](CCCCN)NC(=O)[C@H](CCCCN)NC(=O)[C@H](CCCCN)NC(=O)[C@H](CCCCN)NC(=O)[C@H](CCCCN)NC(=O)[C@H](CCCCN)NC(=O)[C@H](CCCCN)NC(=O)[C@H](CCCCN)NC(=O)[C@@H](N)CCCCN)C(N)=O)C2=O)c2csc(N)n2)C(=O)N1S(=O)(=O)O (some centres unmarked) [AZT-K9] (H-KKKKKKKKKC(X2)-NH2; N-terminus assumed)	0.1
C[C@H]1[C@H](NC(=O)/C(=N\OC(C)(C)C(=O)NCCCCCCN2C(=O)CC(SC[C@H](NC(=O)[C@H](CCCCN)NC(=O)[C@H](CCCCN)NC(=O)[C@H](CCCCN)NC(=O)[C@H](CCCCN)NC(=O)[C@H](CCCCN)NC(=O)[C@H](CCCCN)NC(=O)[C@H](CCCCN)NC(=O)[C@H](CCCCN)NC(=O)[C@H](CCCCN)NC(=O)[C@H](CCCCN)NC(=O)[C@H](CCCCN)NC(=O)[C@@H](N)CCCCN)C(N)=O)C2=O)c2csc(N)n2)C(=O)N1S(=O)(=O)O (some centres unmarked) [AZT-K12] (H-KKKKKKKKKKKKC(X2)-NH2; N-terminus assumed)	0.06
C[C@H]1[C@H](NC(=O)/C(=N\OC(C)(C)C(=O)NCCCCCCN2C(=O)CC(SC[C@H](NC(=O)[C@@H](N)CCCNC(=N)N)C(N)=O)C2=O)c2csc(N)n2)C(=O)N1S(=O)(=O)O (some centres unmarked) [AZT-R1]	16
C[C@H]1[C@H](NC(=O)/C(=N\OC(C)(C)C(=O)NCCCCCCN2C(=O)CC(SC[C@H](NC(=O)[C@H](CCCCN)NC(=O)[C@H](CCCCN)NC(=O)[C@H](CCCCN)NC(=O)[C@H](CCCNC(=N)N)NC(=O)[C@H](CCCNC(=N)N)NC(=O)[C@@H](N)CCCNC(=N)N)C(N)=O)C2=O)c2csc(N)n2)C(=O)N1S(=O)(=O)O (some centres unmarked) [AZT-R3K3] (H-RRRKKKC(X2)-NH2; N-terminus assumed)	0.06
C[C@H]1[C@H](NC(=O)/C(=N\OC(C)(C)C(=O)NCCCCCCN2C(=O)CC(SC[C@H](NC(=O)[C@H](CCCNC(=N)N)NC(=O)[C@H](CCCNC(=N)N)NC(=O)[C@@H](N)CCCNC(=N)N)C(N)=O)C2=O)c2csc(N)n2)C(=O)N1S(=O)(=O)O (some centres unmarked) [AZT-R3]	1
C[C@H]1[C@H](NC(=O)/C(=N\OC(C)(C)C(=O)NCCCCCCN2C(=O)CC(SC[C@H](NC(=O)[C@H](CCCNC(=N)N)NC(=O)[C@H](CCCNC(=N)N)NC(=O)[C@H](CCCNC(=N)N)NC(=O)[C@H](CCCNC(=N)N)NC(=O)[C@H](CCCNC(=N)N)NC(=O)[C@H](CCCNC(=N)N)NC(=O)[C@H](CCCNC(=N)N)NC(=O)[C@H](CCCNC(=N)N)NC(=O)[C@@H](N)CCCNC(=N)N)C(N)=O)C2=O)c2csc(N)n2)C(=O)N1S(=O)(=O)O (some centres unmarked) [AZT-R9]	0.5
C[C@H]1[C@H](NC(=O)/C(=N\OC(C)(C)C(=O)NCCCCCCN2C(=O)CC(SC[C@H](NC(=O)[C@H](CCCNC(=N)N)NC(=O)[C@H](CCCNC(=N)N)NC(=O)[C@H](CCCNC(=N)N)NC(=O)[C@H](CCCNC(=N)N)NC(=O)[C@H](CCCNC(=N)N)NC(=O)[C@H](CCCNC(=N)N)NC(=O)[C@H](CCCNC(=N)N)NC(=O)[C@H](CCCNC(=N)N)NC(=O)[C@H](CCCNC(=N)N)NC(=O)[C@H](CCCNC(=N)N)NC(=O)[C@H](CCCNC(=N)N)NC(=O)[C@@H](N)CCCNC(=N)N)C(N)=O)C2=O)c2csc(N)n2)C(=O)N1S(=O)(=O)O (some centres unmarked) [AZT-R12]	1
CC(C)(O/N=C(\C(=O)N[C@@H]1C(=O)N2C(C(=O)[O-])=C(C[n+]3ccccc3)CS[C@H]12)c1csc(N)n1)C(=O)NCCCCCCN1C(=O)CC(SC[C@H](NC(=O)[C@H](CCCNC(=N)N)NC(=O)CNC(=O)[C@H](CCCNC(=N)N)NC(=O)CNC(=O)[C@H](CCCNC(=N)N)NC(=O)CN)C(N)=O)C1=O (some centres unmarked) [CTZ-(GR)3] (H-GRGRGRC(X1)-NH2; N-terminus assumed)	0.06
CC(C)(O/N=C(\C(=O)N[C@@H]1C(=O)N2C(C(=O)[O-])=C(C[n+]3ccccc3)CS[C@H]12)c1csc(N)n1)C(=O)NCCCCCCN1C(=O)CC(SC[C@H](NC(=O)[C@H](CCCNC(=N)N)NC(=O)[C@H](CCCCN)NC(=O)[C@H](CCCNC(=N)N)NC(=O)[C@H](CCCCN)NC(=O)[C@H](CCCNC(=N)N)NC(=O)[C@@H](N)CCCCN)C(N)=O)C1=O (some centres unmarked) [CTZ-(KR)3] (H-KRKRKRC(X1)-NH2; N-terminus assumed)	0.008
CC(C)(O/N=C(\C(=O)N[C@@H]1C(=O)N2C(C(=O)[O-])=C(C[n+]3ccccc3)CS[C@H]12)c1csc(N)n1)C(=O)NCCCCCCN1C(=O)CC(SC[C@H](NC(=O)[C@H](CCC(=O)O)NC(=O)[C@H](CCC(=O)O)NC(=O)[C@H](CCC(=O)O)NC(=O)[C@H](CCC(=O)O)NC(=O)[C@H](CCC(=O)O)NC(=O)[C@@H](N)CCC(=O)O)C(N)=O)C1=O (some centres unmarked) [CTZ-E6]	> 64
CC(C)(O/N=C(\C(=O)N[C@@H]1C(=O)N2C(C(=O)[O-])=C(C[n+]3ccccc3)CS[C@H]12)c1csc(N)n1)C(=O)NCCCCCCN1C(=O)CC(SC[C@H](NC(=O)CNC(=O)CNC(=O)CNC(=O)CNC(=O)CNC(=O)CN)C(N)=O)C1=O (some centres unmarked) [CTZ-G6] (H-GGGGGGC(X1)-NH2; N-terminus assumed)	8
CC(C)(O/N=C(\C(=O)N[C@@H]1C(=O)N2C(C(=O)[O-])=C(C[n+]3ccccc3)CS[C@H]12)c1csc(N)n1)C(=O)NCCCCCCN1C(=O)CC(SC[C@H](NC(=O)[C@@H](N)CCCCN)C(N)=O)C1=O (some centres unmarked) [CTZ-K1]	1
CC(C)(O/N=C(\C(=O)N[C@@H]1C(=O)N2C(C(=O)[O-])=C(C[n+]3ccccc3)CS[C@H]12)c1csc(N)n1)C(=O)NCCCCCCN1C(=O)CC(SC[C@H](NC(=O)[C@H](CCCCN)NC(=O)[C@H](CCCCN)NC(=O)[C@H](CCCCN)NC(=O)[C@H](CCCCN)NC(=O)[C@H](CCCCN)NC(=O)[C@H](CCCCN)NC(=O)[C@H](CCCCN)NC(=O)[C@H](CCCCN)NC(=O)[C@H](CCCCN)NC(=O)[C@H](CCCCN)NC(=O)[C@H](CCCCN)NC(=O)[C@@H](N)CCCCN)C(N)=O)C1=O (some centres unmarked) [CTZ-K12] (H-KKKKKKKKKKKKC(X1)-NH2)	0.02
CC(C)(O/N=C(\C(=O)N[C@@H]1C(=O)N2C(C(=O)[O-])=C(C[n+]3ccccc3)CS[C@H]12)c1csc(N)n1)C(=O)NCCCCCCN1C(=O)CC(SC[C@H](NC(=O)[C@@H](N)CCCNC(=N)N)C(N)=O)C1=O (some centres unmarked) [CTZ-R1]	1
